This assay in a line: Cytotoxicity against human PC3 cells assessed as inhibition of cell growth after 48 hrs by sulforhodamine B assay. In kind it is functional, cell-based. As to conditions: PC-3, 48 h.

Structures are written as SMILES. pIC50: −log10 of the molar value.

Consider 22 molecules from ChEMBL document CHEMBL3352029, “Ring fusion strategy for the synthesis of anthra[2,3-d]oxazole-2-thione-5,10-dione homologues as DNA topoisomerase inhibitors and as antitumor agents” (Eur J Med Chem, 2014).

In the case of `O=C1c2ccccc2C(=O)c2cc3oc(SCc4cccc([N+](=O)[O-])c4)nc3cc21`, the pIC50 is below 4.52.

For `O=C1c2ccccc2C(=O)c2cc3oc(SCCN4CCOCC4)nc3cc21`, the pIC50 was below 4.52.

In the case of `O=C1COc2cc3c(cc2N1)C(=O)c1ccccc1C3=O`, the pIC50 was below 4.52.

Regarding `CSc1nc2cc3c(cc2o1)C(=O)c1ccccc1C3=O`, the pIC50 is below 4.52.

For `O=C1c2ccccc2C(=O)c2cc3oc(SCc4ccc(F)cc4F)nc3cc21`, the pIC50 is below 4.52.

Regarding `O=C(CN1CCOCC1)Nc1cc2c(cc1O)C(=O)c1ccccc1C2=O`, the pIC50 was below 4.52.

`O=C1c2ccccc2C(=O)c2cc3oc(SCc4ccccc4F)nc3cc21`: the negative logarithm of the IC50 (pIC50) was below 4.52.

Turning to `O=C(CCN1CCCCC1)Nc1cc2c(cc1O)C(=O)c1ccccc1C2=O`, the pIC50 was below 4.52.

For the molecule `O=C(CCN1CCOCC1)Nc1cc2c(cc1O)C(=O)c1ccccc1C2=O`, the pIC50 is below 4.52.

As for `O=C1c2ccccc2C(=O)c2cc3oc(SCc4ccccc4[N+](=O)[O-])nc3cc21`, the negative-log IC50 (pIC50) is below 4.52.

`CCCSc1nc2cc3c(cc2o1)C(=O)c1ccccc1C3=O`: the pIC50 is below 4.52.

For the molecule `O=C(CN1CCCCC1)Nc1cc2c(cc1O)C(=O)c1ccccc1C2=O`, the pIC50 was 4.73.

Consider `CCCCSc1nc2cc3c(cc2o1)C(=O)c1ccccc1C3=O`, for which the pIC50 is below 4.52.

As to `O=C1c2ccccc2C(=O)c2cc3oc(SCc4ccc([N+](=O)[O-])cc4)nc3cc21`, the pIC50 is below 4.52.

For the molecule `O=C(CCCl)Nc1cc2c(cc1O)C(=O)c1ccccc1C2=O`, the pIC50 was 4.57.

As for `O=C(CN1CCCC1)Nc1cc2c(cc1O)C(=O)c1ccccc1C2=O`, the pIC50 was 4.58.

Turning to `O=C1c2ccccc2C(=O)c2cc3oc(SCCN4CCCCC4)nc3cc21`, the pIC50 is 4.66.

Take `O=C1c2ccccc2C(=O)c2cc3oc(SCCc4ccccc4)nc3cc21`: the pIC50 is below 4.52.

For the molecule `O=C(CCl)Nc1cc2c(cc1O)C(=O)c1ccccc1C2=O`, the pIC50 was 4.63.

With `CCN(CC)CCC(=O)Nc1cc2c(cc1O)C(=O)c1ccccc1C2=O`, the pIC50 was 4.63.

For the molecule `CCN(CC)CC(=O)Nc1cc2c(cc1O)C(=O)c1ccccc1C2=O`, the pIC50 was 4.69.

As to `O=C1c2ccccc2C(=O)c2cc3oc(SCc4ccccc4)nc3cc21`, the pIC50 is below 4.52.
